Values quoted from earlier work in patent EP2566463B1, “EXTENDED RELEASE THIOCO[…]” (Ali Raif Ilac Sanayi Ve Ticaret A.S., priority 2010, dated 2011).

Columns and labels:
[1] = conventional, immediate release forms
[2] = conventional, immediate release forms of thiocolchicoside

Compound	muscle relaxing effect starts [1] [h]	Elimination half life in plasma [2] [h]
N-[3-(β-D-glucopyranosyloxy)-1,2-dimethoxy-10-(methylthio)-9-oxo-5,6,7,9-tetrahydrobenzo[a]heptalen-7-yl]acetamide [thiocolchicoside]	1 to 2	4 to 5
COc1c(O)cc2c(c1OC)-c1ccc(SC)c(=O)cc1C(NC(C)=O)CC2 (stereo not drawn) [3-Desmethylthiocolchicine]	–	4 to 5
